Earlier results as cited in US20260373135A1, “Methods of Treatment with Tradipitant” (Vanda Pharmaceuticals Inc., priority 2022, published 2026).

What was measured:
CYP3A4 [1] = target: T1, CYP3A4 (Homo sapiens, UniProt P08684); details: breast cancer patients; n=16 *22, n=116 wt; cited from earlier work
CYP3A4 [2] = target: T1, CYP3A4; details: renal transplant patients; cited from earlier work
CYP3A4 [3] = target: T1, CYP3A4; details: human liver microsomes in vitro; cited from earlier work

T1 sequence (P08684 whole entry): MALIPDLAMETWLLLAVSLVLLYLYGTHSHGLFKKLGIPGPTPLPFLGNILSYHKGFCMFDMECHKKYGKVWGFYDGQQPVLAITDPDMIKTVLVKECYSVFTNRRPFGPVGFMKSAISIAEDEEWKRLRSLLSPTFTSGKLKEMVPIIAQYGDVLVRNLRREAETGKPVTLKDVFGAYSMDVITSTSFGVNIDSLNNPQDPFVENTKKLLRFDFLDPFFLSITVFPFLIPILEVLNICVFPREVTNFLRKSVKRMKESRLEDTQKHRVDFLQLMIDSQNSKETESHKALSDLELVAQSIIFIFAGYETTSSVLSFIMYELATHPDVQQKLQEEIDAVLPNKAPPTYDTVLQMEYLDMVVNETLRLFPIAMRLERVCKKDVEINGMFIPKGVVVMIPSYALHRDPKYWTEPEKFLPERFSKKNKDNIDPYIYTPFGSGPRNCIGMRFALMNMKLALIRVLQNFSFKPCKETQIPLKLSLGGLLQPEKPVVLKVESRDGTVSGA

| SMILES | clearance in CYP3A4*22 carriers (CYP3A4 [2]) | further results |
| --- | --- | --- |
| CC/C(=C(\c1ccc(O)cc1)c1ccc(OCCNC)cc1)c1ccccc1 [Endoxifen] | – | blood concentrations in CYP3A4*22 carriers vs *1/*1 (CYP3A4 [1]): increased |
| CO[C@H]1C[C@@H]2CC[C@@H](C)[C@@](O)(O2)C(=O)C(=O)N2CCCC[C@H]2C(=O)O[C@H]([C@H](C)C[C@@H]2CC[C@@H](OCCO)[C@H](OC)C2)CC(=O)[C@H](C)/C=C(\C)[C@@H](O)[C@@H](OC)C(=O)[C@H](C)C[C@H](C)/C=C/C=C/C=C/1C [everolimus] | lower clearance | – |
| CO[C@H]1C[C@@H]2CC[C@@H](C)[C@@](O)(O2)C(=O)C(=O)N2CCCC[C@H]2C(=O)O[C@H]([C@H](C)C[C@@H]2CC[C@@H](O)[C@H](OC)C2)CC(=O)[C@H](C)/C=C(\C)[C@@H](O)[C@@H](OC)C(=O)[C@H](C)C[C@H](C)/C=C/C=C/C=C/1C [sirolimus] | – | metabolic rate with CYP3A4*22 (CYP3A4 [3]): lower |
| C=CC[C@@H]1/C=C(\C)C[C@H](C)C[C@H](OC)[C@H]2O[C@@](O)(C(=O)C(=O)N3CCCC[C@H]3C(=O)O[C@H](/C(C)=C/[C@@H]3CC[C@@H](O)[C@H](OC)C3)[C@H](C)[C@@H](O)CC1=O)[C@H](C)C[C@@H]2OC [tacrolimus] | reduced | – |
